Test results taken from US10280198B2, “Therapeutic agents for reducing parathyroid hormone levels” (KAI PHARMACEUTICALS, INC., priority 2009, dated 2019).
Like-named read-outs stand apart in the source and are kept apart here. Square brackets hold non-standard residues; d marks the D form. Peptide text beside a SMILES is read from it. dNle = CCCC[C@@H](N)C(=O)O; dNva = CCC[C@@H](N)C(=O)O

What was measured:
[1] = tested on: rat peritoneal mast cells; test: In vitro histamine induction in rat peritoneal mast cells; type: cell-based
Method: To further evaluate the relationship between compound structure and histamine release, a series of compounds was prepared and assessed for their ability to trigger induction of histamine in an in vitro assay using rat peritoneal mast cells. In this assay, compounds are incubated at 10 μM for 15 minutes at 37° C. with cells isolated from peritoneal lavage of SD rats. Following incubation, cell medium is collected and histamine is determined.
Accordingly, and as can be appreciated in view of the PTH data and the histamine data described hereinabove, in one embodiment, a compound that has activity to decrease PTH level in a subject in the absence of a histamine response is contemplated. In certain embodiments, absence of a histamine response intends a dose of the compound that produces a less than 10-fold, more preferably 8-fold, still more preferably 5-fold, and even still more preferably 3-fold, increase in histamine, measured in vitro in an assay as described herein, where the fold change is determined based on histamine levels before incubation with the compound and after 15 minutes incubation with compound. In a specific embodiment, the histamine response is determined in an in vitro assay using rat peritoneal mast cells isolated from peritoneal lavage of normal Sprague Dawley rats, and where the fold change is determined based on histamine levels before incubation with the compound and after 15 minutes incubation with compound. In the studies conducted herein, the in vitro evaluation of histamine release was performed using isolated rat peritoneal mast cells isolated by peritoneal lavage using cold HBSS+25 mM HEPES pH 7.4 containing heparin (5 u/mL). Cells were washed twice in stimulation buffer (HBSS+25 mM HEPES pH 7.4) and incubated with 10 μM of compound in stimulation buffer (HBSS+25 mM HEPES pH 7.4) for 15 minutes in a 96-well plate ([…]) at 37° C. Cell supernatant was analyzed for histamine using histamine EIA kit (Cayman #589651).
For in vitro evaluation of histamine release, isolated rat peritoneal mast cells were isolated by performing peritoneal lavage using cold HBSS+25 mM HEPES pH 7.4 containing heparin (5 u/mL). Cells were washed twice in stimulation buffer (HBSS+25 mM HEPES pH 7.4) and incubated with 10 μM of compound in stimulation buffer (HBSS+25 mM HEPES pH 7.4) for 15 minutes in a 96-well plate (10^6/well) at 37° C. Cell supernatant was analyzed for histamine using histamine EIA kit (Cayman #589651).

plasma PTH = test: In vivo PTH lowering after IV bolus in isoflurane-anesthetized normal Sprague Dawley rats; parameters: species or system rat; conditions: for 0.5 mg/kg IV bolus % PTH AUC of saline control: normal rats, AUC 1-4 h
Method: The peptides were administered intravenously at a dose of 0.5 mg/kg into isoflurane-anesthetized normal Sprague Dawley rats. A control group of rats was treated with saline. Blood was drawn prior to dosing and every hour for 4 hours. Rats were maintained under isoflurane anesthesia for the entire study. […] Percent PTH reduction was calculated according to the following formula: AUCcmpd treated/AUCsaline control*100.
An intravenous (IV) bolus of saline was used as a control. Plasma (K2EDTA) PTH levels were assessed prior to dosing and 1, 2, 3 and 4 hours after dosing. Rats were maintained under isoflurane anesthesia for the entire study. […] In FIG. 2B, PTH is shown as percent of the baseline pre-dose value.
A series of compounds having an L-amino acid residue substituted for a D-amino acid residue were prepared. The compounds were administered as an IV bolus to normal Sprague Dawley rats at a dose of 0.5 mg/kg. An intravenous (IV) bolus of saline was used as a control. […] Rats were maintained under isoflurane anesthesia for the entire study.

Structure (SMILES)	Histamine in vitro Fold change of non-treated at 10 uM [1] [fold]	0.5 mg/kg IV bolus % PTH AUC of saline control (plasma PTH; Table 6) [%]	% PTH reduction of baseline at 1 hour post IV administration of 0.5 mg/kg compound (plasma PTH; Table 2, isoflurane-anesthetized normal rats, 0.5 mg/kg IV, 1 hour) [%]	0.5 mg/kg IV bolus % PTH AUC of saline control (plasma PTH; Table 2) [%]	0.5 mg/kg IV bolus % PTH AUC of saline control (plasma PTH; Table 7) [%]	Histamine in vitro Fold change of non-treated at 10 uM ([1]; Table 9, 10 μM, 15 minutes, 37° C.) [fold]
CC(=O)N[C@H](CS)C(=O)N[C@H](CC(C)C)C(=O)N[C@H](CCCNC(=N)N)C(=O)N[C@H](CCCNC(=N)N)C(=O)N[C@H](CCCNC(=N)N)C(=O)N[C@H](C)C(=O)N[C@H](CCCNC(=N)N)C(N)=O [SEQ ID NO: 98, Ac-clrrrar-NH2] (Ac-[dC][dL][dR][dR][dR][dA][dR]-NH2)	2.2	26				
CC(=O)N[C@H](CS)C(=O)N[C@H](CCCNC(=N)N)C(=O)N[C@H](CCCNC(=N)N)C(=O)N[C@H](Cc1c[nH]cn1)C(=O)N[C@H](CCCNC(=N)N)C(=O)N[C@H](C)C(=O)N[C@H](CCCNC(=N)N)C(N)=O [SEQ ID NO: 109, Ac-crrhrar-NH2] (Ac-[dC][dR][dR][dH][dR][dA][dR]-NH2)	2.3	9				
CC(=O)N[C@H](CS)C(=O)N[C@H](CCCNC(=N)N)C(=O)N[C@H](C)C(=O)N[C@H](C)C(=O)N[C@H](CCCNC(=N)N)C(=O)N[C@H](CCCNC(=N)N)C(=O)N[C@H](CCCNC(=N)N)C(N)=O [SEQ ID NO: 24, Ac-craarrr-NH2] (Ac-[dC][dR][dA][dA][dR][dR][dR]-NH2)	1.0		8	9		
CCCC[C@@H](NC(=O)[C@@H](CS)NC(C)=O)C(=O)N[C@H](CCCNC(=N)N)C(=O)N[C@H](CCCNC(=N)N)C(=O)N[C@H](CCCNC(=N)N)C(=O)N[C@H](C)C(=O)N[C@H](CCCNC(=N)N)C(N)=O [SEQ ID NO: 134, Ac-c-dNle-rrrar-NH2] (Ac-[dC][dNle][dR][dR][dR][dA][dR]-NH2)	2.2				10	
CC(=O)N[C@H](CS)C(=O)N[C@H](CCC(N)=O)C(=O)N[C@H](CCCNC(=N)N)C(=O)N[C@H](CCCNC(=N)N)C(=O)N[C@H](CCCNC(=N)N)C(=O)N[C@H](C)C(=O)N[C@H](CCCNC(=N)N)C(N)=O [SEQ ID NO: 99, Ac-cqrrrar-NH2] (Ac-[dC][dQ][dR][dR][dR][dA][dR]-NH2)	1.9	24				
CC(=O)N[C@H](CS)C(=O)N[C@H](CCCNC(=N)N)C(=O)N[C@H](CCCNC(=N)N)C(=O)NCC(=O)N[C@H](CCCNC(=N)N)C(=O)N[C@H](C)C(=O)N[C@H](CCCNC(=N)N)C(N)=O [SEQ ID NO: 105, Ac-crrGrar-NH2] (Ac-[dC][dR][dR]G[dR][dA][dR]-NH2)	1.8	69				
CCCC[C@@H](NC(=O)[C@@H](CCCNC(=N)N)NC(=O)[C@@H](CCCNC(=N)N)NC(=O)[C@@H](CCCNC(=N)N)NC(=O)[C@@H](CCCC)NC(=O)[C@@H](CS)NC(C)=O)C(=O)N[C@H](CCCNC(=N)N)C(N)=O [SEQ ID NO: 130, Ac-c-dNle-rrr-dNle-r-NH2] (Ac-[dC][dNle][dR][dR][dR][dNle][dR]-NH2)	9.2				54	
CC(=O)N[C@H](CS)C(=O)N[C@H](C)C(=O)N[C@H](CCCNC(=N)N)C(=O)N[C@H](CCCNC(=N)N)C(=O)N[C@H](CCCNC(=N)N)C(=O)NCC(=O)N[C@H](CCCNC(=N)N)C(N)=O [SEQ ID NO: 93, Ac-carrrGr-NH2] (Ac-[dC][dA][dR][dR][dR]G[dR]-NH2)	0.9	5				
CCC[C@@H](NC(=O)[C@@H](CCCNC(=N)N)NC(=O)[C@@H](CCCNC(=N)N)NC(=O)[C@@H](CCCNC(=N)N)NC(=O)[C@@H](CCC)NC(=O)[C@@H](CS)NC(C)=O)C(=O)N[C@H](CCCNC(=N)N)C(N)=O [SEQ ID NO: 132, Ac-c-dNva-rrr-dNva-r-NH2] (Ac-[dC][dNva][dR][dR][dR][dNva][dR]-NH2)					27	4.1
